The text below walks through data of patent US12544348B2, “Methods for treating APOE4/4-associated disorders” (The Regents of the University of California, priority 2018, dated 2026).

The test system of the test is apoE4/4-iPSC-derived human neurons. The test can be described thus: RNA-Seq analysis of apoE4/4-iPSC-derived human neurons. The class given is cell-based. The note with it: 10 μM, 6 hours. The source says:
Neuronal Differentiation of Human apoE4/4-iPSCs. Human iPS lines were generated from skin fibroblasts of a subject with apoE4/4 genotype and were maintained under feeder-free conditions in mTeSR1 medium (STEMCELL Technologies). Human apoE4/4-iPSCs were routinely passaged at 1:2-1:4 by brief treatment with Accutase (Millipore) and scraping. The human iPSC protocol was approved by the Committee on Human Research at the University of California. The apoE4/4-iPSCs were differentiated into neurons as reported with modifications. iPSCs were treated with collagenase IV (Stem Cell Technologies) and grown in suspension as embryoid bodies in hES medium without bFGF. The medium was replaced every day for 5 days. On day 5, embryoid bodies were grown in Neural Induction Medium containing Dulbecco's modified Eagle's medium/F12 and Neurobasal Medium (1:1, Thermo Fisher), 1% N2 Supplement (Life Technologies), 1% B27 Supplement (Life Technologies), nonessential amino acids, and 0.5% penicillin/streptomycin (Life Technologies) supplemented with inhibitors of the TGF-β receptor (SB431542, Stemgent; 5 μM) and the bone morphogenetic protein receptor (LDN-193189, Stemgent; 0.25 μM). On day 7, spheres were transferred to wells coated with Matrigel (BD Biosciences) and grown in Neural Progenitor Medium, which consisted of Neural Induction Medium without SB and LDN, but containing 10 ng/ml bFGF (PeproTech), 10 ng/ml epidermal growth factor (EGF) (PeproTech), and 2 μg/ml heparin (Sigma). Attached neuroepithelial cells were fed every other day for 7 days. Neural rosette structures appeared by around day 15, were lifted off the plate, and grown in suspension in Neural Progenitor Medium to form neurospheres. For neuronal differentiation, neurospheres were dissociated with Accutase and plated on culture plates coated with 100 μg/ml poly-1-ornithine (Sigma) and 10 μg/ml laminin (Sigma). Neuronal cultures were maintained in Neural Differentiation Medium consisting of Neural Progenitor Medium, brain-derived neurotrophic factor (10 ng/ml; PeproTech), and glial cell-derived growth factor (10 ng/ml; PeproTech) without bFGF, EGF, or heparin. Neurons were observed after several days and were further differentiated for 30 days or longer. Most of the experiments were performed on the neuronal culture differentiated beyond 8 weeks. This culture condition generated neuronal cells with 75±4% vGLUT^+ total glutamatergic excitatory neurons, 15±3% GABA^+ GABAergic inhibitory neurons, and 5±2% TH^+ dopaminergic neurons. RNA-Seq Analysis of Human ApoE4/4-iPS-derived Neurons. Total RNA was extracted and purified from apoE4/4-iPSC-derived human neurons with the Qiagen RNeasy Micro kit, which included a DNase treatment. cDNA was generated from full-length RNA (50 ng per sample) with the NuGEN RNA-Seq V2 kit, which uses the single primer isothermal amplification method to deplete ribosomal RNA, and sheared by Covaris to yield fragments of uniform size. The NuGen Ultralow system V2 was used for adding adapters and for barcoding and amplification. The resulting RNA libraries were purified with Agencourt XP magnetic beads, and quantified by qPCR after quality control with an Agilent Bioanalyzer. The libraries were pooled and sequenced with a HiSeq 4000 instrument (Illumina) for single-end (SE50) sequencing. Sequence data were aligned with the STAR short read aligner and counts per feature were obtained with the featureCounts function from the Subread package. […]

Setting [1] is: vs vehicle, P<0.05 by Monte Carlo Simulation.

Turning to `CCCCNc1cc(C(=O)O)cc(S(N)(=O)=O)c1Oc1ccccc1` [bumetanide, 3-(butylamino)-4-phenoxy-5-sulfamoylbenzoic acid], the “number of pathways also shared with the apoE4/4 AD signature from humans” value is given as 4, the “number of pathways overlapping with mouse hippocampal neuronal cells exhibiting the predicted drug effect” value is 14 and the “number of significantly perturbed pathways” value is given as 27. Moreover, under setting [1], the “shift in FC rank of genes downregulated in apoE4/4 AD” value was “shifted upward towards lower rank numbers” and the “shift in FC rank of genes upregulated in apoE4/4 AD” value was “shifted downward towards higher rank numbers”.
